PMC10221074, “Functional Profiling of the A-Family of Venom Peptides from the Wolf Spider Lycosa shansia” (Toxins, 2023)

How the values were obtained:
[1] = test system: B/Malaysia/2506/2004 (B-Mal); format: cell-based, influenza virus
[2] = test system: Pseudomonas aeruginosa DSM 1117; test: Antibacterial growth assay (OD600); settings: for Bacterial growth relative to medium, P. aeruginosa (1117), replicate 1 / Bacterial growth relative to medium, P. aeruginosa (1117), replicate 2 / Bacterial growth relative to medium, P. aeruginosa (1117), replicate 3: OD600, medium = 100, MH II broth; for Bacterial growth relative to medium, P. aeruginosa (1117), replicate 1: replicate column 1; for Bacterial growth relative to medium, P. aeruginosa (1117), replicate 2: replicate column 2; for Bacterial growth relative to medium, P. aeruginosa (1117), replicate 3: replicate column 3
Method: (§1) Cryo-conserved cultures of selected bacterial strains (Table 4) were transferred to Tryptic Soy Agar (TSA) plates (Carl Roth) with a sterile inoculation loop, sealed with Parafilm (BEMIS, Neenah, WI, USA), and incubated for 1–2 days at 37 °C depending on growth. Single colonies were picked and transferred into 2–3 mL of the Mueller–Hinton II (MH II) broth (BD, Heidelberg, Germany). The bacteria were cultivated overnight, subcultured on fresh medium and grown for 3–4 h before testing at 37 °C, with shaking at 180 rpm. We measured the optical density at 600 nm (OD600) of 1 mL of the bacterial suspensions in polystyrene cuvettes (SARSTED, Nümbrecht, Germany) using an Ultrospec 10 spectrophotometer (Biochrome, Cambridge, UK). We then diluted them with the MH II medium to the preferred OD600 (Table 2). The peptides were dissolved in DMSO to generate 10 mmol/L stocks and diluted with the MH II medium to 200 µM before the assay. We used 10 µg/mL (~40 µg/mL for S. epidermidis) gentamicin and colistin (Sigma-Aldrich, Taufkirchen, Germany), DMSO and the medium only as controls. The bacteria were transferred to 96-multiwell plates with a final volume of 100 µL per well (50 µL bacterial suspension, and 50 µL test peptide). The OD600 was measured at 0, 24 and 48 h using a BioTek Eon microplate reader followed by analysis with Gen5 v2.09.

[3] = test system: Staphylococcus aureus DSM 2569; test: Antibacterial growth assay (OD600); settings: OD600, medium = 100, MH II broth; for Bacterial growth relative to medium, S. aureus, replicate 1: replicate column 1; for Bacterial growth relative to medium, S. aureus, replicate 2: replicate column 2; for Bacterial growth relative to medium, S. aureus, replicate 3: replicate column 3
Method: as §1

A/Hamburg/05/2009 (H1N1) = format: cell-based, influenza virus
[4] = test system: Escherichia coli BL21(DE3); test: Antibacterial growth assay (OD600); settings: OD600, medium = 100, MH II broth; for Bacterial growth relative to medium, E. coli, replicate 1: replicate column 1; for Bacterial growth relative to medium, E. coli, replicate 2: replicate column 2; for Bacterial growth relative to medium, E. coli, replicate 3: replicate column 3
Method: as §1

A/Hessen/1/2003 (H3N2) = format: cell-based, influenza virus
[5] = test system: Listeria monocytogenes DSM 20600; test: Antibacterial growth assay (OD600); settings: for Bacterial growth relative to medium, L. monocytogenes, replicate 1 / Bacterial growth relative to medium, L. monocytogenes, replicate 2 / Bacterial growth relative to medium, L. monocytogenes, replicate 3: OD600, medium = 100, MH II broth; for Bacterial growth relative to medium, L. monocytogenes, replicate 1: replicate column 1; for Bacterial growth relative to medium, L. monocytogenes, replicate 2: replicate column 2; for Bacterial growth relative to medium, L. monocytogenes, replicate 3: replicate column 3
[6] = test system: Micrococcus luteus DSM 20030; test: Antibacterial growth assay (OD600); settings: OD600, medium = 100, MH II broth; for Bacterial growth relative to medium, M. luteus, replicate 1: replicate column 1; for Bacterial growth relative to medium, M. luteus, replicate 2: replicate column 2; for Bacterial growth relative to medium, M. luteus, replicate 3: replicate column 3
[7] = test system: Staphylococcus epidermidis DSM 28319; test: Antibacterial growth assay (OD600); settings: for Bacterial growth relative to medium, S. epidermidis, replicate 1: replicate column 1; for Bacterial growth relative to medium, S. epidermidis, replicate 2: replicate column 2; for Bacterial growth relative to medium, S. epidermidis, replicate 3: replicate column 3
[8] = test system: Pseudomonas aeruginosa DSM 50071; test: Antibacterial growth assay (OD600); settings: for Bacterial growth relative to medium, P. aeruginosa (50071), replicate 1 / Bacterial growth relative to medium, P. aeruginosa (50071), replicate 2 / Bacterial growth relative to medium, P. aeruginosa (50071), replicate 3: OD600, medium = 100, MH II broth; for Bacterial growth relative to medium, P. aeruginosa (50071), replicate 1: replicate column 1; for Bacterial growth relative to medium, P. aeruginosa (50071), replicate 2: replicate column 2; for Bacterial growth relative to medium, P. aeruginosa (50071), replicate 3: replicate column 3
Method: as §1

[9] = 37 °C, peptide 200 µM mixed 50 µL + 50 µL with bacteria, Figure 7: 48 h
[10] = OD600, medium = 100, MH II broth, 37 °C, peptide 200 µM mixed 50 µL + 50 µL with bacteria, Figure 7: 48 h
[11] = antibiotic control, table line says 10µg/mL (methods: ~40 µg/mL for S. epidermidis), OD600, medium = 100

## SLLGLLDVVKSKIGQTG [LS-AMP-A14]
[1]
  Viability of infected cells relative to aprotinin, Replicate 1: 0.05534
  Viability of infected cells relative to aprotinin, Replicate 2: 0.06456
  Viability of infected cells relative to aprotinin, Replicate 3: 0.1102
[2]; [9]
  Bacterial growth relative to medium, P. aeruginosa (1117), replicate 1: 84.8429
  Bacterial growth relative to medium, P. aeruginosa (1117), replicate 2: 62.4783
  Bacterial growth relative to medium, P. aeruginosa (1117), replicate 3: 58.9547
[2]; P. aeruginosa DSM 1117, growth after 48 h
  Antibacterial activity (in words): weak activity
[3]; [9]
  Bacterial growth relative to medium, S. aureus, replicate 1: 81.4506
  Bacterial growth relative to medium, S. aureus, replicate 2: 83.1916
  Bacterial growth relative to medium, S. aureus, replicate 3: 66.5171
A/Hamburg/05/2009 (H1N1)
  Viability of infected cells relative to aprotinin, Replicate 1: 0.03385
  Viability of infected cells relative to aprotinin, Replicate 2: 0.02545
  Viability of infected cells relative to aprotinin, Replicate 3: 0.02099
[4]; [9]
  Bacterial growth relative to medium, E. coli, replicate 1: 109.705
  Bacterial growth relative to medium, E. coli, replicate 2: 98.8412
  Bacterial growth relative to medium, E. coli, replicate 3: 96.3776
A/Hessen/1/2003 (H3N2)
  Viability of infected cells relative to aprotinin, Replicate 1: 0.07143
  Viability of infected cells relative to aprotinin, Replicate 2: 0.146
  Viability of infected cells relative to aprotinin, Replicate 3: 0.0602
A/Hessen/1/2003 (H3N2); […], replicate 4 (additional internal control)
  Viability of infected cells relative to aprotinin, Replicate 4: 0.04395
[5]; L. monocytogenes DSM 20600, growth after 48 h
  Antibacterial activity (in words): more active
[5]; [9]
  Bacterial growth relative to medium, L. monocytogenes, replicate 1: 102.734
  Bacterial growth relative to medium, L. monocytogenes, replicate 2: 82.6703
  Bacterial growth relative to medium, L. monocytogenes, replicate 3: 49.785
[6]; [9]
  Bacterial growth relative to medium, M. luteus, replicate 1: 101.208
  Bacterial growth relative to medium, M. luteus, replicate 2: 114.302
  Bacterial growth relative to medium, M. luteus, replicate 3: 44.4763
[7]; [10]
  Bacterial growth relative to medium, S. epidermidis, replicate 1: 97.145
  Bacterial growth relative to medium, S. epidermidis, replicate 2: 104.641
  Bacterial growth relative to medium, S. epidermidis, replicate 3: 74.4979
[8]; [9]
  Bacterial growth relative to medium, P. aeruginosa (50071), replicate 1: 100.972
  Bacterial growth relative to medium, P. aeruginosa (50071), replicate 2: 116.001
  Bacterial growth relative to medium, P. aeruginosa (50071), replicate 3: 81.6852
[8]; P. aeruginosa DSM 50071, growth after 48 h
  Antibacterial activity (in words): weak activity

## colistin [Polymyx, reference compound]
[2]; antibiotic control 10µg/mL
  Bacterial growth relative to medium, P. aeruginosa (1117), replicate 1: 8.3082
  Bacterial growth relative to medium, P. aeruginosa (1117), replicate 2: 7.355
  Bacterial growth relative to medium, P. aeruginosa (1117), replicate 3: 3.543
[3]; antibiotic control 10µg/mL
  Bacterial growth relative to medium, S. aureus, replicate 1: 85.0041
  Bacterial growth relative to medium, S. aureus, replicate 2: 99.7935
  Bacterial growth relative to medium, S. aureus, replicate 3: 95.4465
[4]; antibiotic control 10µg/mL
  Bacterial growth relative to medium, E. coli, replicate 1: 15.553
  Bacterial growth relative to medium, E. coli, replicate 2: 16.1645
  Bacterial growth relative to medium, E. coli, replicate 3: 11.9401
[5]; antibiotic control 10µg/mL
  Bacterial growth relative to medium, L. monocytogenes, replicate 1: 82.3087
  Bacterial growth relative to medium, L. monocytogenes, replicate 2: 64.4034
  Bacterial growth relative to medium, L. monocytogenes, replicate 3: 78.447
[6]; antibiotic control 10µg/mL
  Bacterial growth relative to medium, M. luteus, replicate 1: 34.787
  Bacterial growth relative to medium, M. luteus, replicate 2: 53.8113
  Bacterial growth relative to medium, M. luteus, replicate 3: 47.1539
[7]; [11]
  Bacterial growth relative to medium, S. epidermidis, replicate 1: 77.611
  Bacterial growth relative to medium, S. epidermidis, replicate 2: 72.7124
  Bacterial growth relative to medium, S. epidermidis, replicate 3: 81.8478
[8]; antibiotic control 10µg/mL
  Bacterial growth relative to medium, P. aeruginosa (50071), replicate 1: 5.416
  Bacterial growth relative to medium, P. aeruginosa (50071), replicate 2: 11.2545
  Bacterial growth relative to medium, P. aeruginosa (50071), replicate 3: 11.5437
